From patent publication US20230109833A1, “METABOLICALLY STABLE N-ACYLAMINOOXADIAZOLES USEFUL AS ANTIBACTERIAL AGENTS” (MICROBIOTIX, INC., priority 2017, published 2023)
Values after ≈ are worked out from the molar mass of the structure shown. “Also recorded” adds a separate entry of the source. Like-named read-outs stand apart in the source and are kept apart here.

Columns and labels:
S. aureus = test: MIC (Table 2B); assay type: cell-based; details: Staphylococcus aureus, strain not given
N. gonorrhoeae = test: MIC (Table 2B); assay type: cell-based; details: Neisseria gonorrhoeae, read-out: N. gonorrhoeae MIC
[1] = Single dose PK (IV and PO); assay type: in vivo; details: mice, 10 mg/kg IV or IP, within 6 h, serum; 10 mg/kg
36 mammalian receptors = assay type: binding; details: 10 μM; every receptor of the panel

SMILES	MIC (S. aureus)	MIC (N. gonorrhoeae; Table 2B, strain not given)	also measured
Cc1ccc(C(=O)Nc2nnc(-c3ccc(N4CCC4)cc3)o2)cc1C [3999A]	0.68 µg/mL (≈ 1.95 µM)	0.087 µg/mL (≈ 0.25 µM)	–
O=C(Nc1nnc(-c2ccccc2O)o1)c1ccc(Oc2ccccc2)nc1 [5939A]	1.4 µg/mL (≈ 3.74 µM)	0.82 µg/mL (≈ 2.19 µM)	–
O=C(Nc1nnc(-c2ccc(F)cc2)o1)c1ccc(Cl)cc1 [KKL-35]	–	–	detectable material after dosing (preliminary PK) [1]: no detectable material; also recorded: undetectable
O=C(Nc1nnc(-c2ccc(F)cc2)o1)c1ccc(Cl)s1 [compound 3653]	–	0.32 µg/mL (≈ 0.988 µM)	–
CN(C(=O)c1ccc(Cl)cc1)c1nnc(-c2ccc(F)cc2)o1 [compound 4076]	8.27 µg/mL (≈ 24.9 µM)	2.07 µg/mL (≈ 6.24 µM)	–
O=C(Nc1nnc(-c2ccc(F)cc2)o1)c1ccc(Oc2ccccc2)nc1 [compound 4237, 2-(6-phenoxynicotinamido)-5-(4-fluorophenyl)-1,3,4-oxadiazole]	–	–	inhibition of the 36 mammalian receptors (36 mammalian receptors): < 50%
O=C(Nc1nnc(-c2ccc(F)cc2)o1)c1ccc(S(=O)(=O)c2ccccc2)cc1 [compound 4257]	2.64 µg/mL (≈ 6.23 µM)	–	–
O=C(Nc1nnc(-c2ccc(F)cc2)o1)c1ccc(OC2CCCC2)cc1 [compound 4293]	0.28 µg/mL (≈ 0.762 µM)	–	–
O=C(Nc1nnc(-c2ccc(F)cc2)o1)c1ccc(Oc2cccc(O)c2)cc1 [compound 4304]	3.07 µg/mL (≈ 7.84 µM)	0.39 µg/mL (≈ 0.997 µM)	–
Cc1ccc(Oc2ccc(C(=O)Nc3nnc(-c4ccc(F)cc4)o3)cc2)cc1 [compound 4305]	0.03 µg/mL (≈ 0.077 µM)	0.048 µg/mL (≈ 0.123 µM)	–
Cc1cccc(Oc2ccc(C(=O)Nc3nnc(-c4ccc(F)cc4)o3)cc2)c1 [compound 4306]	0.03 µg/mL (≈ 0.077 µM)	0.048 µg/mL (≈ 0.123 µM)	–
Cc1ccccc1Oc1ccc(C(=O)Nc2nnc(-c3ccc(F)cc3)o2)cc1 [compound 4307]	0.61 µg/mL (≈ 1.57 µM)	0.09 µg/mL (≈ 0.231 µM)	–
Cc1cc(C)cc(Oc2ccc(C(=O)Nc3nnc(-c4ccc(F)cc4)o3)cc2)c1 [compound 4308]	0.314 µg/mL (≈ 0.778 µM)	0.079 µg/mL (≈ 0.196 µM)	–
COc1cccc(Oc2ccc(C(=O)Nc3nnc(-c4ccc(F)cc4)o3)cc2)c1 [compound 4309]	0.63 µg/mL (≈ 1.55 µM)	0.1 µg/mL (≈ 0.247 µM)	–
COc1ccc(Oc2ccc(C(=O)Nc3nnc(-c4ccc(F)cc4)o3)cc2)cc1 [compound 4310]	0.631 µg/mL (≈ 1.56 µM)	0.05 µg/mL (≈ 0.123 µM)	–
O=C(Nc1nnc(-c2ccc(F)cc2)o1)c1ccc2c(c1)ncn2-c1ccccc1 [compound 4311]	–	2.49 µg/mL (≈ 6.23 µM)	–
CC(Oc1ccc(C(=O)Nc2nnc(-c3ccc(F)cc3)o2)cc1)c1ccccc1 (stereo not shown) [compound 4357]	–	0.2 µg/mL (≈ 0.496 µM)	–
O=C(Nc1nnc(C2CCCC2)o1)c1ccc(Oc2ccccc2)nc1 [compound 4470]	4.37 µg/mL (≈ 12.5 µM)	0.35 µg/mL (≈ 0.999 µM)	–
Cc1cccc(-c2nnc(NC(=O)c3ccc(Oc4ccccc4)nc3)o2)c1 [compound 4499]	0.92 µg/mL (≈ 2.47 µM)	0.18 µg/mL (≈ 0.483 µM)	–

SMILES	MIC (S. aureus)	MIC (N. gonorrhoeae; Table 2B, strain not given)	also measured
O=C(Nc1nnc(C2COc3ccccc3O2)o1)c1ccc(Oc2ccccc2)nc1 (stereo not shown) [compound 4770]	7.36 µg/mL (≈ 17.7 µM)	3.33 µg/mL (≈ 8 µM)	–
O=C(Nc1nnc(C2CCCCC2)o1)c1ccc(Oc2ccccc2)nc1 [compound 4780]	3.61 µg/mL (≈ 9.91 µM)	0.36 µg/mL (≈ 0.988 µM)	–
O=C(Nc1nnc(C2CCCCC2)o1)c1ccc(Oc2cccc(O)c2)cc1 [compound 4801]	2.98 µg/mL (≈ 7.85 µM)	0.19 µg/mL (≈ 0.501 µM)	–
O=C(Nc1nnc(Cc2ccc(F)cc2)o1)c1ccc(Oc2ccccc2)nc1 [compound 4802]	–	1.56 µg/mL (≈ 4 µM)	–
CCC(c1ccccc1)c1nnc(NC(=O)c2ccc(Oc3ccccc3)nc2)o1 (stereo not shown) [compound 4804]	–	0.63 µg/mL (≈ 1.57 µM)	–
O=C(Nc1nnc(C2CCCCC2)o1)c1ccc(OC2CCCCC2)nc1 [compound 4925]	–	0.14 µg/mL (≈ 0.378 µM)	–
O=C(Nc1nnc(C2CC3CCC2C3)o1)c1ccc(Oc2ccccc2)nc1 (stereo not shown) [compound 5246]	4.71 µg/mL (≈ 12.5 µM)	0.16 µg/mL (≈ 0.425 µM)	–
O=C(Nc1nnc(C2(O)CCCCC2)o1)c1ccc(Oc2ccccc2)nc1 [compound 5793]	–	38 µg/mL (≈ 99.9 µM)	–
Nc1ccc(C(=O)Nc2nnc(-c3ccc(F)cc3)o2)cc1 [compound 5804]	–	–	MIC (N. gonorrhoeae): 18.8 µg/mL (≈ 63 µM)
N#Cc1nnc(NC(=O)c2ccc(Oc3ccccc3)nc2)o1 [compound 5834]	–	20.3 µg/mL (≈ 66.1 µM)	–
O=C(Nc1nnc(-c2ccc(F)cc2)o1)c1ccc(N2CCC2)cc1 [compound 5910]	18.9 µg/mL (≈ 55.9 µM)	4.23 µg/mL (≈ 12.5 µM)	–
O=C(Nc1nnc(-c2ccccc2O)o1)c1ccc(Oc2cccc(O)c2)cc1 [compound 6205]	1.71 µg/mL (≈ 4.39 µM)	0.3 µg/mL (≈ 0.77 µM)	–
O=C(Nc1nnc(C2CC3CCC2C3)o1)c1ccc(OC2CCN(CC(F)(F)F)CC2)cc1 (stereo not shown) [compound 6211]	5.8 µg/mL (≈ 12.5 µM)	1.29 µg/mL (≈ 2.78 µM)	–
O=C(Nc1nnc(-c2cccc(O)c2)o1)c1ccc(Oc2cccc(O)c2)cc1 [compound 6236]	19.4 µg/mL (≈ 49.8 µM)	4.86 µg/mL (≈ 12.5 µM)	–
Cc1cncc(Oc2ccc(C(=O)Nc3nnc(C4CC5CCC4C5)o3)cc2)n1 (stereo not shown) [compound 6282]	6.9 µg/mL (≈ 17.6 µM)	1.37 µg/mL (≈ 3.5 µM)	–
O=C(Nc1nnc(-c2cccc(F)c2O)o1)c1ccc(Oc2cccc(O)c2)cc1 [compound 6976]	2.5 µg/mL (≈ 6.14 µM)	1.91 µg/mL (≈ 4.69 µM)	–
O=C(Nc1nnc(-c2cc(F)ccc2O)o1)c1ccc(Oc2cccc(O)c2)cc1 [compound 6977]	0.6 µg/mL (≈ 1.47 µM)	0.21 µg/mL (≈ 0.516 µM)	–
COc1c(F)cccc1-c1nnc(NC(=O)c2ccc(Oc3cncc(C)n3)cc2)o1 [compound 6983]	21.1 µg/mL (≈ 50.1 µM)	9.7 µg/mL (≈ 23 µM)	–
